Entries after “also recorded” stand apart in the source; their conditions may differ. Read-outs that look alike come from different tables or passages of the source. Blank lines part the entries; values can stand above or below the molecule they belong to.
Tests used:
MIF [1] = target: T1, MIF (Homo sapiens, UniProt P14174); assay: MIF dopachrome tautomerase activity inhibition; format: biochemical; parameters: 1 μL of MIF solution (800-900 ng/mL)
T1 sequence (P14174 2-115 limits assumed): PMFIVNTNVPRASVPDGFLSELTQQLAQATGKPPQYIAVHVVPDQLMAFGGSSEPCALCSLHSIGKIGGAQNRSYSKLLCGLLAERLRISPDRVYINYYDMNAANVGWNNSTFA
Method: MIF tautomerase activity was measured by UV-Visible recording spectrophotometry (SHIMADZU, UV 1600U). A fresh stock solution of L-dopachrome methyl ester was prepared at 2.4 mM through oxidation of L3,4-dihydroxyphenylalanine methyl ester with sodium periodate. 1 μL of MIF solution (800-900 ng/mL) and 1 μL of a DMSO solution with various concentrations of the enzymatic inhibitor were added into a plastic cuvette (10 mm, 1.5 mL) containing 0.7 mL assay buffer (1× potassium phosphate, pH 7.2). The L-dopachrome methyl ester solution (0.3 mL) was added to the assay buffer mixture.

[2] = test system: TNF release by LPS-treated macrophages; conditions: in vitro; cited from earlier work
endotoxemia and sepsis = conditions: intraperitoneal, 40 mg/kg; Al-Abed et al., 2005; cited from earlier work
[3] = test system: TNF release by LPS-stimulated human macrophages; assay: TNF release from LPS-stimulated macrophages; format: cell-based; conditions: FIG. 4
Method: (§1) TNF-α production was then measured. The data shown are mean ±SD of triplicate wells in experiments that were repeated twice.
It has been shown that the macrophage is an abundant source of MIF (Calandra et al., 1994), which is released after LPS stimulation. This led to an examination of the autocrine and paracrine activity of secreted MIF in vitro.

MIF [4] = target: T1, MIF; assay: MIF glucocorticoid-regulating (proinflammatory) activity in LPS-treated macrophages, TNF-α production; format: cell-based; parameters: dexamethasone plus MIF (3 nM purified native MIF); host or cells: added to monocyte-derived macrophages from human peripheral blood
Method: as §1

CLP sepsis = assay: cecal ligation and puncture (CLP) sepsis survival; format: in vivo; conditions: mice, intraperitoneal, first injection 24 hours after CLP, further injections day 2 and 3, FIG. 6
Method: FIG. 6 is a graph showing that Cyc-Oxi-II is protective even when given 24 h after the induction of sepsis.
An additional two injections were given, on day 2 and day 3. Thirteen mice were tested.

antibacterial effect = conditions: preliminary studies
[5] = preliminary acute toxicity screening; format: in vivo
Description: Design of Cyc-Oxi-11. ISO-1, the pharmacological inhibitor of MIF, neutralizes exogenous and endogenous MIF in in vitro and in vivo models. This indicates the successful application of chemical approaches to antagonize MIF biological activities. Although ISO-1 has significant anti-inflammatory activity, development of better inhibitors was desired. […] Representative structures of the novel oxime scaffold are presented in Table I, with their IC50 of inhibiting MIF dopachrome tautomerase activity.

[6] = Table 2, additional MIF inhibitors, read-out: IC50 MIF inhibitory activity in vitro
[7] = Table 1, left column pair, read-out: IC50 inhibition of MIF tautomerase activity

SMILES: CC(C)(C)OC(=O)NNC(=O)C1CCCCC1 [BKII-90]
IC50 (MIF [1]; [6]): 60 µM

SMILES: CC(C)(C)OC(=O)NOC(=O)C1CCCCC1 [BKII-85]
IC50 (MIF [1]; [6]): 19.5 µM

SMILES: COC(=O)C[C@@H]1CC(c2ccc(O)cc2)=NO1 (racemic) [ISO-1, (S,R)-3-(4-hydroxyphenyl)-4,5-dihydro-5-isoxazole acetic acid methyl ester]
inhibition of TNF release [2]: 60%
survival rate (endotoxemia and sepsis): increased the survival rate

SMILES: O=C(O/N=C/c1ccc(O)cc1)C1CCCCC1 [Cyc-Oxi-11, (E)-4-hydroxybenzaldehyde O-cyclohexanecarbonyloxime]
inhibition of TNF release [3]: inhibits TNF release in vitro; also recorded: in a dose-dependent manner, inhibits TNF release; also recorded: inhibits MIF induction of TNF release
inhibition of MIF-dependent interference with glucocorticoids (MIF [4]; LPS-stimulated human macrophages, FIG. 3): significantly inhibited; also recorded: suppresses the ability of MIF to regulate glucocorticoids
potency versus ISO-1 as inhibitor of MIF proinflammatory activity in vitro (MIF [4]; relative to ISO-1): 30 fold
potency versus ISO-1 in MIF tautomerase inhibition (MIF [1]; relative to ISO-1): 30 fold
deaths / protection after CLP (CLP sepsis): considerably reduced the deaths caused by CLP
deaths / protection after CLP (CLP sepsis; listed as Cyc-Oxi-II): protective
antibacterial effect (antibacterial effect): negative
acute toxicity, intraperitoneal injection ([5]; doses up to 100 mg/Kg): no evidence of toxicity
toxicity at high doses ([5]; high doses, both in vitro and in vivo): lacks obvious toxicity

SMILES: CC(C)(C)OC(=O)NOC(=O)c1ccccc1 [BKII-98]
IC50 (MIF [1]; [6]): 0.23 µM

SMILES: CC(C)(C)OC(=O)NOC(=O)C1CC1 [BKII-91]
IC50 (MIF [1]; [6]): 1.9 µM

SMILES: CC(C)(C)OC(=O)NOC(=O)C1CCCC1 [BKII-93]
IC50 (MIF [1]; [6]): 0.7 µM

SMILES: CC(C)(C)OC(=O)NOC(=O)c1c(F)c(F)c(F)c(F)c1F [BKIII-6W]
IC50 (MIF [1]; [6]): 118 µM

SMILES: O=C(O/N=C/c1ccc(O)cc1)C1CCCC1
IC50 (MIF [1]; [7]): 4.8 µM

SMILES: COc1ccc(C(=O)ONC(=O)OC(C)(C)C)cc1 [BKII-99]
IC50 (MIF [1]; [6]): 1.2 µM

SMILES: O=C(O/N=C/c1ccc(O)cc1)C1CCC1
IC50 (MIF [1]; [7]): 12 µM

SMILES: CC(C)(C)OC(=O)NOC(=O)C1CCC1 [BKII-92]
IC50 (MIF [1]; [6]): 0.37 µM

Further lines, results first:

IC50 (MIF [1]; [6]): 50 µM
SMILES: CC(C)(C)OC(=O)NOC(=O)c1ccc(OC(=O)c2ccc(O)cc2)cc1 [BKIII-6Y]

IC50 (MIF [1]; [6]): 1.7 µM
SMILES: CC(C)(C)OC(=O)NOC(=O)c1ccc(I)cc1 [BKIII-9Y]

IC50 (MIF [1]; [6]): 69 µM
SMILES: CC(C)(C)OC(=O)NOC(=O)c1ccc(C(F)(F)F)cc1 [BKIII-9W]

IC50 (MIF [1]; read-out: IC50 of MIF dopachrome tautomerase activity): 1.1 µM
SMILES: COc1ccc(C(=O)ON=Cc2ccc(O)cc2)cc1 [Compound 4]

IC50 (MIF [1]; [6]): 0.27 µM
SMILES: CC(C)(C)OC(=O)NOC(=O)c1ccc(F)cc1 [BKIII-8W]

improvement of inhibition of dopachrome tautomerase activity over parent compound (MIF [1]; mono-fluorinated analogue versus parent): 63%
SMILES: COc1ccc(OC(=O)O/N=C/c2ccc(O)c(F)c2)cc1 [Compound 5, (E)-3-fluoro-4-hydroxybenzaldehyde O-4′-methoxyphenyl carbonyloxime]

IC50 (MIF [1]; [6]): 1.3 µM
SMILES: CC(C)(C)OC(=O)NOC(=O)c1ccc(Br)cc1 [BKIII-11Y]

IC50 (MIF [1]; [6]): 0.87 µM
SMILES: CC(C)(C)OC(=O)NOC(=O)c1ccc(Cl)cc1 [BKIII-8Y]

— patent US20090318509A1, “Oxime Derivatives as Inhibitors of Macrophage Migration Inhibitory Factor” (priority 2006, published 2009)
